According to paper PMC7619385 (ACS infectious diseases, 2025):
Structures can show the parent of a compound that is named as a salt. Where two headings read alike, the source gives them in different places.

Target: T1, LmxCLK1 (Leishmania mexicana, UniProt E9AMP2)
T1 sequence (E9AMP2 1-422): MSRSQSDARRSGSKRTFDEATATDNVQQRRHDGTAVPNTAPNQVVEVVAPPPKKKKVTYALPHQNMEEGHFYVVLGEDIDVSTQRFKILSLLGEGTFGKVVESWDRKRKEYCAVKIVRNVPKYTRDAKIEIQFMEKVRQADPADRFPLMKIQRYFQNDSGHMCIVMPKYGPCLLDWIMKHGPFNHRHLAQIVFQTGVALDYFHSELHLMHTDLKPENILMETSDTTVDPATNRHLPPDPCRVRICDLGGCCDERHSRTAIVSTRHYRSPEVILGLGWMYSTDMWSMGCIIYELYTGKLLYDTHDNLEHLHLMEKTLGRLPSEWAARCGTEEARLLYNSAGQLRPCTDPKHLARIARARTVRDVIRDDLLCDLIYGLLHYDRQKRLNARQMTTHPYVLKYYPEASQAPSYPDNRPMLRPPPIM
Experiment: biochemical
Type: binding

[1] = DSF, 10 µM compound, 2 µM LmxCLK1, Run 1
[2] = DSF, 10 µM compound, 2 µM LmxCLK1, Run 2
[3] = DSF, 10 µM compound, 2 µM LmxCLK1, mean of two runs
[4] = DSF, 10 µM compound, 2 µM LmxCLK1, Run 1, read-out: ΔTm Run 1
[5] = DSF, 10 µM compound, 2 µM LmxCLK1, Run 2, read-out: ΔTm Run 2
[6] = DSF, 10 µM compound, 2 µM LmxCLK1, mean of two runs, read-out: ΔTm Average

Row | SMILES | ΔTm Run 1 [1] [°C] | ΔTm Run 2 [2] [°C] | ΔTm Average [3] [°C] | ΔTm at 10 µM [4] [°C] | ΔTm at 10 µM [5] [°C] | ΔTm at 10 µM [6] [°C] | further results
1 | Cc1c(NC(=O)OC[C@@H]2COCCN2)cn2ncnc(Nc3ccc4c(cnn4Cc4cccc(F)c4)c3)c12 [AC480 (BMS-599626)] | 0.4 | 0.2 | 0.3 |  |  |  | 
2 | COc1cc2nccc(Oc3ccc(NC(=O)C4(C(=O)Nc5ccc(F)cc5)CC4)cc3)c2cc1OC [Cabozantinib (XL184)] | 0.3 | -0.2 | 0.0 |  |  |  | 
3 | Nc1cccc(-c2cc3c(Oc4cccc(O)c4)ncnc3[nH]2)c1 [TWS119] | 0.1 | 0.2 | 0.1 |  |  |  | 
4 | COc1ccc(S(=O)(=O)N(CCO)c2ccccc2CN(C)C/C=C/c2ccc(Cl)cc2)cc1.O=P(O)(O)O [KN-93 Phosphate] | 0.1 | -0.5 | -0.2 |  |  |  | 
5 | COc1ccc(COc2cc3oc(=O)c4cc(C(C)O)ccc4c3cc2OC)cc1 (stereo not drawn) [Palomid 529 (P529)] | 0.3 | -0.1 | 0.1 |  |  |  | 
6 | NC1(Cc2ccc(Cl)cc2)CCN(c2ncnc3[nH]ccc23)CC1 [CCT128930] | 0.8 | 0.6 | 0.7 |  |  |  | 
7 | Cc1nc(N)sc1-c1ccnc(Nc2ccc(N3CCOCC3)cc2)n1 [CYC116] |  |  |  | 0.4 | -0.1 | 0.1 | 
8 | Oc1ccc(Nc2nc(-c3ccc(Cl)cc3)cs2)cc1 [SKI II] | 0.1 | 0.1 | 0.1 |  |  |  | 
9 | CC(C)(C)Cn1c(N)nc2ccc(-c3[nH]c(C(C)(C)C)nc3-c3ccc(F)cc3)nc21 [LY2228820] |  |  |  | -0.3 | -0.3 | -0.3 | 
10 | Nc1ncnc2c1c(-c1cccc(OCc3ccccc3)c1)cn2[C@H]1C[C@@H](CN2CCC2)C1 [NVP-AEW541] |  |  |  | 0.1 | -0.1 | 0 | 
11 | COc1cc2c(Oc3ccc(NC(=O)C4(C(=O)Nc5ccc(F)cc5)CC4)cc3F)ccnc2cc1OCCCN1CCOCC1 [Foretinib (GSK1363089)] | 0.4 | -0.4 | 0.0 |  |  |  | 
12 | CO[C@H]1C[C@@H]2CC[C@@H](C)[C@@](O)(O2)C(=O)C(=O)N2CCCC[C@H]2C(=O)O[C@H]([C@H](C)C[C@@H]2CC[C@@H](O)[C@H](OC)C2)CC(=O)[C@H](C)/C=C(\C)[C@@H](O)[C@@H](OC)C(=O)[C@H](C)C[C@H](C)/C=C/C=C/C=C/1C [Rapamycin (Sirolimus)] |  |  |  | 0.3 | -0.1 | 0.1 | 
13 | N#CC[C@H](C1CCCC1)n1cc(-c2ncnc3[nH]ccc23)cn1 [Ruxolitinib (INCB018424)] |  |  |  | 0.9 | 1.1 | 1 | 
14 | O=C(Nc1c[nH]nc1-c1nc2ccc(CN3CCOCC3)cc2[nH]1)NC1CC1 [AT9283] |  |  |  | 2.2 | 2.1 | 2.2 | 
15 | COc1cc2nccc(Oc3ccc(NC(=O)C4(C(=O)Nc5ccc(F)cc5)CC4)cc3)c2cc1OC.O=C(O)C[C@H](O)C(=O)O [Cabozantinib malate (XL184)] | 0.1 | -0.3 | -0.1 |  |  |  | 
16 | CNc1nc(Nc2cn(C(C)(C)C#N)nc2C)ncc1C(F)(F)F [GNE-0877] |  |  |  | -0.1 | -0.2 | -0.1 | 
17 | COCCNCc1ccc(-c2cc3nccc(Oc4ccc(NC(=S)NC(=O)Cc5ccc(F)cc5)cc4F)c3s2)nc1 [MGCD-265] |  |  |  | 0 | -0.1 | -0.1 | 
18 | CN1CCN(C2CCN(C(=O)Nc3cc(Oc4ccc(NC(=O)C5(C(=O)Nc6ccc(F)cc6)CC5)c(F)c4)ccn3)CC2)CC1 [Golvatinib (E7050)] |  |  |  |  |  |  | ΔTm at 10 µM (read-out: ΔTm Average): 0.6 °C; ΔTm at 10 µM (read-out: ΔTm Run 1): 0.5 °C; ΔTm at 10 µM (read-out: ΔTm Run 2): 0.7 °C

Row | SMILES | ΔTm Run 1 [1] [°C] | ΔTm Run 2 [2] [°C] | ΔTm Average [3] [°C] | ΔTm at 10 µM [4] [°C] | ΔTm at 10 µM [5] [°C] | ΔTm at 10 µM [6] [°C] | further results
19 | COc1ccc(CNC(=O)Nc2ncc([N+](=O)[O-])s2)cc1 [AR-A014418] | 0.0 | -0.1 | -0.1 |  |  |  | 
20 | Cc1ccc(-c2nn(C(C)(C)C)c3ncnc(N)c23)cc1 [PP1] |  |  |  |  |  |  | ΔTm Average: 0 °C; ΔTm Run 1: 0.2 °C; ΔTm Run 2: -0.2
21 | Nc1cc(C(F)(F)F)c(-c2cc(N3CCOCC3)nc(N3CCOCC3)n2)cn1 [BKM120 (NVP-BKM120)] | 0.1 | 0.2 | 0.1 |  |  |  | 
22 | COc1ccc(N(C(=O)Oc2c(C)cccc2C)c2ccnc(Nc3ccc(N4CCN(C)CC4)cc3)n2)c(OC)c1 [WH-4-023] |  |  |  |  |  |  | ΔTm Average: -0.3; ΔTm Run 1: -0.4; ΔTm Run 2: -0.2
23 | CN(C)C/C=C/C(=O)Nc1cc2c(Nc3ccc(F)c(Cl)c3)ncnc2cc1O[C@H]1CCOC1 [Afatinib (BIBW2992)] |  |  |  | 0.1 | -0.5 | -0.2 | 
24 | Cn1cc(-c2ccc3nnc(Sc4ccc5ncccc5c4)n3n2)cn1 [SGX-523] |  |  |  | -0.1 | -0.2 | -0.1 | 
25 | Cc1nc(NC(=O)N2CCC[C@H]2C(N)=O)sc1-c1ccnc(C(C)(C)C(F)(F)F)c1 [BYL719] |  |  |  | 0.1 | 0.2 | 0.2 | 
26 | CCN(CCO)CCCOc1ccc2c(Nc3cc(CC(=O)Nc4cccc(F)c4)[nH]n3)ncnc2c1 [Barasertib (AZD1152-HQPA)] | 0.4 | -0.1 | 0.1 |  |  |  | 
27 | CO[C@H]1C[C@@H]2CC[C@@H](C)[C@@](O)(O2)C(=O)C(=O)N2CCCC[C@H]2C(=O)O[C@H]([C@H](C)C[C@@H]2CC[C@@H](OC(=O)C(C)(CO)CO)[C@H](OC)C2)CC(=O)[C@H](C)/C=C(\C)[C@@H](O)[C@@H](OC)C(=O)[C@H](C)C[C@H](C)/C=C/C=C/C=C/1C [Temsirolimus (CCI-779)] | -0.1 | -0.3 | -0.2 |  |  |  | 
28 | O=c1ncn2nc(Sc3ccc(F)cc3F)ccc2c1-c1c(Cl)cccc1Cl [VX-745] |  |  |  | 0.4 | 0.2 | 0.3 | 
29 | O=C(Nc1cccc(Cl)c1)Nc1ncc(CCNc2ncnc3ccsc23)s1 [SNS-314 Mesylate] |  |  |  | 3.6 | 8.3 | 5.9 | 
30 | Cc1nc(Nc2[nH]nc3c2CN(C(=O)N[C@H](CN(C)C)c2ccccc2)C3(C)C)c2sccc2n1 [PF-3758309] |  |  |  | 0.7 | 0.5 | 0.6 | 
31 | Cc1cc(C(C)Nc2ccccc2)c2nc(N3CCOCC3)cc(=O)n2c1 (stereo not drawn) [TGX-221] | 0.5 | 0.3 | 0.4 |  |  |  | 
32 | Nc1nc(Nc2ccc(S(N)(=O)=O)cc2)nn1C(=O)c1c(F)cccc1F [JNJ-7706621] |  |  |  | 1.4 | 1.7 | 1.6 | 
33 | Nc1ncnc2c1c(-c1cccc(OCc3ccccc3)c1)cn2C1CC(CN2CCCC2)C1 (stereo not drawn) [NVP-ADW742] | 0.0 | -0.2 | -0.1 |  |  |  | 
34 | COc1cc2nccc(Oc3ccc(NC(=O)NC4CC4)c(Cl)c3)c2cc1C(N)=O [Lenvatinib (E7080)] | -0.1 | -0.4 | -0.3 |  |  |  | 
35 | Cn1cc(-c2ccc3nnc(C(F)(F)c4ccc5ncccc5c4)n3n2)cn1 [JNJ-38877605] |  |  |  |  |  |  | ΔTm Average: -0.3; ΔTm Run 1: -0.1; ΔTm Run 2: -0.4
